Experimental data from PubChem BioAssay AID248 (DTP/NCI, 2004).
Where “and” joins values, the source holds several entries; their conditions need not be identical. Equal entries are not always repeated. Toxic doses and inconclusive results are not listed. Rule as the data show it: active = T/C of 150% or more; inactive = T/C below 125%.

Test system: L1210 leukemia ip in BDF1 mice, survival T/C
Assay: NCI In Vivo Anticancer Drug Screen. Data for tumor model L1210 Leukemia (intraperitoneal) in B6D2F1 (BDF1) mice
Settings: endpoint: mean survival time, higher = longer survival
Summary of the method: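 Ratio derived from survival: compound-dosed mice over vehicle-dosed mice, all bearing a transplantable tumor.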

[1] = dose: 100.0 mg/kg/injection, schedule: Q01DX001 (ip), vehicle: carboxymethylcellulose (CMC)
[2] = dose: 100.0 mg/kg/injection, schedule: Q04DX003 (ip), vehicle: saline with Tween-80
[3] = dose: 200.0 mg/kg/injection, schedule: Q01DX001 (ip), vehicle: carboxymethylcellulose (CMC)
[4] = dose: 200.0 mg/kg/injection, schedule: Q04DX003 (ip), vehicle: saline with Tween-80
[5] = dose: 400.0 mg/kg/injection, schedule: Q04DX003 (ip), vehicle: saline with Tween-80
[6] = dose: 100.0 mg/kg/injection, schedule: Q01DX009 (ip), vehicle: saline with Tween-80
[7] = dose: 200.0 mg/kg/injection, schedule: Q01DX009 (ip), vehicle: saline with Tween-80
[8] = dose: 400.0 mg/kg/injection, schedule: Q01DX009 (ip), vehicle: saline with Tween-80
[9] = dose: 100.0 mg/kg/injection, schedule: Q01DX001 (ip), vehicle: saline
[10] = dose: 100.0 mg/kg/injection, schedule: Q04DX002 (ip), vehicle: Klucel (hydroxypropylcellulose) (HPC)
[11] = dose: 200.0 mg/kg/injection, schedule: Q01DX001 (ip), vehicle: saline
[12] = dose: 200.0 mg/kg/injection, schedule: Q04DX002 (ip), vehicle: Klucel (hydroxypropylcellulose) (HPC)
[13] = dose: 400.0 mg/kg/injection, schedule: Q01DX001 (ip), vehicle: saline
[14] = dose: 400.0 mg/kg/injection, schedule: Q04DX002 (ip), vehicle: Klucel (hydroxypropylcellulose) (HPC)
[15] = dose: 400.0 mg/kg/injection, schedule: Q01DX001 (ip), vehicle: carboxymethylcellulose (CMC)
[16] = dose: 50.0 mg/kg/injection, schedule: Q01DX001 (ip), vehicle: carboxymethylcellulose (CMC)
[17] = dose: 25.0 mg/kg/injection, schedule: Q04DX002 (ip), vehicle: saline
[18] = dose: 50.0 mg/kg/injection, schedule: Q04DX002 (ip), vehicle: saline
[19] = dose: 100.0 mg/kg/injection, schedule: Q04DX002 (ip), vehicle: saline
[20] = dose: 25.0 mg/kg/injection, schedule: Q04DX003 (ip), vehicle: Klucel (hydroxypropylcellulose) (HPC)
[21] = dose: 50.0 mg/kg/injection, schedule: Q04DX003 (ip), vehicle: Klucel (hydroxypropylcellulose) (HPC)
[22] = dose: 100.0 mg/kg/injection, schedule: Q01DX001 (ip), vehicle: Klucel (hydroxypropylcellulose) (HPC)
[23] = dose: 200.0 mg/kg/injection, schedule: Q01DX001 (ip), vehicle: Klucel (hydroxypropylcellulose) (HPC)
[24] = dose: 400.0 mg/kg/injection, schedule: Q01DX001 (ip), vehicle: Klucel (hydroxypropylcellulose) (HPC)

Measured: T/C

O=C(O)C1C2CCC(O2)C1C(=O)O (configuration not stated)
inactive: [1] 91 % of control | [2] 100 % of control | [3] 88 % of control | [4] 96 % of control | [5] 102 % of control

CNC(=O)c1ccc[n+](CC(=O)Nc2ccc(Cl)cc2)c1
inactive: dose: 100.0 mg/kg/injection, schedule: Q04DX003 (ip), vehicle: acetone 110 % of control | dose: 200.0 mg/kg/injection, schedule: Q04DX003 (ip), vehicle: acetone 98 % of control

CS(=O)(=O)N(CC(=O)O)Cc1ccc(F)cc1
inactive: dose: 100.0 mg/kg/injection, schedule: Q01DX009 (ip), vehicle: other 103 % of control | dose: 100.0 mg/kg/injection, schedule: Q04DX003 (ip), vehicle: other 98 % of control | dose: 200.0 mg/kg/injection, schedule: Q01DX009 (ip), vehicle: other 102 % of control | dose: 200.0 mg/kg/injection, schedule: Q04DX003 (ip), vehicle: other 104 % of control | dose: 400.0 mg/kg/injection, schedule: Q01DX009 (ip), vehicle: other 97 % of control | dose: 400.0 mg/kg/injection, schedule: Q04DX003 (ip), vehicle: other 94 % of control

C/C(=C\Nc1cccnc1)C(=O)c1ccc(F)cc1
inactive: [6] 102 % of control | [7] 102 % of control | [8] 98 % of control

O=c1c2ccc(Cl)cc2[nH]c(=S)n1-c1ccc(Cl)cc1
inactive: [6] 89 % of control | [7] 89 % of control | [8] 87 % of control

Cc1cnc(SC(C)(C)C)c(C)c1
inactive: [9] 109 % of control | dose: 100.0 mg/kg/injection, schedule: Q01DX009 (ip), vehicle: saline 100 % of control | [10] 98 % of control and 100 % of control | [2] 108 % of control | [11] 107 % of control | dose: 200.0 mg/kg/injection, schedule: Q01DX009 (ip), vehicle: saline 94 % of control and 104 % of control | [12] 100 % of control and 106 % of control | [4] 102 % of control | [13] 109 % of control | dose: 400.0 mg/kg/injection, schedule: Q01DX009 (ip), vehicle: saline 100 % of control and 107 % of control | [14] 95 % of control and 97 % of control | [5] 91 % of control

CCC1(/C(C)=C/C(C)C)C(=O)NC(=O)NC1=O
inactive: dose: 5.0 mg/kg/injection, schedule: Q01DX001 (ip), vehicle: saline 96 % of control | dose: 10.0 mg/kg/injection, schedule: Q01DX001 (ip), vehicle: saline 101 % of control

Cc1ccc(S(=O)(=O)Nc2ccccc2N=Cc2ccc(N(CCCl)CCCl)cc2C)cc1
inactive: [1] 101 % of control | [3] 103 % of control | [15] 86 % of control

COC1C(CO)OC(n2cnc3c(N)ncnc32)C1O (configuration not stated)
inactive: [16] 102 % of control | [1] 110 % of control | [3] 116 % of control | [15] 98 % of control

CC(=O)n1cc(/C=C2\N=C(c3ccc([N+](=O)[O-])cc3)OC2=O)c2ccccc21
inactive: dose: 100.0 mg/kg/injection, schedule: Q04DX002 (ip), vehicle: saline with Tween-80 95 % of control | dose: 200.0 mg/kg/injection, schedule: Q04DX002 (ip), vehicle: saline with Tween-80 109 % of control | dose: 400.0 mg/kg/injection, schedule: Q04DX002 (ip), vehicle: saline with Tween-80 92 % of control

CCN(CC)CC(Cl)CN(CC)CC
inactive: dose: 50.0 mg/kg/injection, schedule: Q01DX009 (ip), vehicle: saline with Tween-80 104 % of control | [6] 87 % of control | [2] 97 % of control | [4] 88 % of control

CN1C2CCC1C(=O)N(Cc1ccccc1)C2=O
inactive: [2] 102 % of control | [4] 93 % of control | [5] 101 % of control

Cc1nonc1C(=O)N(C)C
inactive: [17] 98 % of control | [18] 102 % of control | [19] 102 % of control

O=C1NCCc2c1sc1ccccc21
inactive: [1] 95 % of control | [15] 90 % of control

COc1cc(C=Nc2cccc(C(=O)O)c2)ccc1N(CCCl)CCCl
inactive: [16] 117 % of control

C[N+](C)(C)CC1(COC(=O)C(O)(c2ccccc2)c2ccccc2)CCC1
inactive: dose: 12.0 mg/kg/injection, schedule: Q01DX001 (ip), vehicle: Klucel (hydroxypropylcellulose) (HPC) 100 % of control | dose: 12.0 mg/kg/injection, schedule: Q04DX003 (ip), vehicle: Klucel (hydroxypropylcellulose) (HPC) 94 % of control | dose: 25.0 mg/kg/injection, schedule: Q01DX001 (ip), vehicle: Klucel (hydroxypropylcellulose) (HPC) 98 % of control | [20] 86 % of control | dose: 50.0 mg/kg/injection, schedule: Q01DX001 (ip), vehicle: Klucel (hydroxypropylcellulose) (HPC) 96 % of control | [21] 86 % of control

CCCCCCCCCCCCCCCCCCN1CCS(=O)CC1
inactive: [22] 98 % of control | [23] 100 % of control | [24] 102 % of control

IC12CC3CC(CC(C3)C1)C2
inactive: [6] 93 % of control | [7] 87 % of control | [8] 97 % of control

CCCCCC[Se][Se]CCCCCC
inactive: dose: 6.25 mg/kg/injection, schedule: Q01DX009 (ip), vehicle: Klucel (hydroxypropylcellulose) (HPC) 96 % of control | dose: 12.5 mg/kg/injection, schedule: Q01DX009 (ip), vehicle: Klucel (hydroxypropylcellulose) (HPC) 96 % of control | dose: 25.0 mg/kg/injection, schedule: Q01DX009 (ip), vehicle: Klucel (hydroxypropylcellulose) (HPC) 91 % of control | [20] 90 % of control | [21] 103 % of control and 107 % of control

NC(CSC1c2ccccc2-c2ccccc21)C(=O)O (configuration not stated)
inactive: dose: 75.0 mg/kg/injection, schedule: Q01DX001 (ip), vehicle: carboxymethylcellulose (CMC) 96 % of control | dose: 150.0 mg/kg/injection, schedule: Q01DX001 (ip), vehicle: carboxymethylcellulose (CMC) 98 % of control | dose: 300.0 mg/kg/injection, schedule: Q01DX001 (ip), vehicle: carboxymethylcellulose (CMC) 101 % of control

CN(C)c1ccnc(SCc2ccc(Cl)cc2Cl)n1
inactive: dose: 25.0 mg/kg/injection, schedule: Q01DX Z (ip), vehicle: methylcellulose (MC) 92 % of control | dose: 50.0 mg/kg/injection, schedule: Q01DX Z (ip), vehicle: methylcellulose (MC) 94 % of control

COc1ccc(C2NC(=O)N3C(c4ccc(OC)c(OC)c4)NC(=O)N23)cc1OC (configuration not stated)
inactive: dose: 100.0 mg/kg/injection, schedule: Q04DX002 (ip), vehicle: gum acacia 98 % of control | dose: 200.0 mg/kg/injection, schedule: Q04DX002 (ip), vehicle: gum acacia 102 % of control | dose: 400.0 mg/kg/injection, schedule: Q04DX002 (ip), vehicle: gum acacia 105 % of control

c1ccc2cc(C3OCC4(CCC4)CO3)ccc2c1
inactive: [22] 94 % of control | [23] 104 % of control | [24] 104 % of control

CC12CCC(C(=O)C1=O)C2(C)C (configuration not stated)
inactive: [16] 121 % of control | [1] 103 % of control | [10] 99 % of control | [3] 109 % of control | [12] 96 % of control | [15] 113 % of control | [14] 89 % of control

CN(C)[C@@H]1C(=O)C(C(=O)NCNc2nc3n[nH]nc3c(=O)[nH]2)=C(O)[C@@]2(O)C(=O)C3=C(O)c4c(O)cccc4[C@@](C)(O)[C@H]3C[C@@H]12
inactive: dose: 12.5 mg/kg/injection, schedule: Q01DX009 (ip), vehicle: acetone 98 % of control | dose: 25.0 mg/kg/injection, schedule: Q01DX009 (ip), vehicle: acetone 104 % of control | dose: 50.0 mg/kg/injection, schedule: Q01DX009 (ip), vehicle: acetone 122 % of control | [9] 102 % of control | dose: 100.0 mg/kg/injection, schedule: Q01DX009 (ip), vehicle: acetone 117 % of control | [11] 96 % of control | dose: 200.0 mg/kg/injection, schedule: Q01DX009 (ip), vehicle: acetone 122 % of control | [13] 105 % of control

CCC(NC)c1ccccc1 (configuration not stated)
inactive: [17] 104 % of control | [18] 89 % of control | [19] 106 % of control
